Data: PubChem BioAssay (NCI)
Values joined by “and” are separate entries in the source; they are usually repeats but may differ in a detail not shown here. Equal values may be shown once.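 Interpolation was linear, between the two tested concentrations surrounding the appropriate level; five concentrations were tested over 48 hours in 96-well plates. GI50 = concentration required for 50% inhibition of growth. At the TGI there is no net growth.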

What was measured:
Test in all cases: inhibition of tumour cell growth, NCI panel, 48 h
[1] = system: K-562 leukemia
[2] = system: HCT-15 colon
[3] = system: NCI-H460 lung
[4] = system: HT29 colon
[5] = system: SK-MEL-5 melanoma
[6] = system: HOP-62 NSCLC
[7] = system: HS 578T breast
[8] = system: 786-0 renal
[9] = system: HCT-116 colon
[10] = system: NCI-H522 lung

| SMILES | GI50 [1] | TGI [1] | GI50 [2] | TGI [2] | GI50 [3] | TGI [3] | GI50 [4] | TGI [4] | GI50 [5] | TGI [5] | GI50 [6] | TGI [6] | GI50 [7] | TGI [7] | GI50 [8] | TGI [8] | GI50 [9] | TGI [9] | GI50 [10] | TGI [10] |
| --- | --- | --- | --- | --- | --- | --- | --- | --- | --- | --- | --- | --- | --- | --- | --- | --- | --- | --- | --- | --- |
| NCCNCCNCCN | > 100 µM | > 100 µM | > 100 µM | > 100 µM | > 100 µM | > 100 µM | > 100 µM | > 100 µM | > 100 µM | > 100 µM | > 100 µM | > 100 µM | > 100 µM | > 100 µM | > 100 µM | > 100 µM | > 100 µM | > 100 µM | – | – |
| C#Cc1cccc(Nc2nc3cc([N+](=O)[O-])ccc3nc2Nc2ccc(O)cc2)c1 | 2.1 µM | 6.41 µM | – | – | – | – | 1.71 µM | 3.42 µM | 1.79 µM | 3.23 µM | 1.67 µM | 3.35 µM | 1.89 µM | 4.71 µM | 1.59 µM | 3.43 µM | 1.46 µM | 2.9 µM | – | – |
| Cc1[cH-]c(=O)n(-c2ccccc2)n1.[Au+].[Au].c1ccc([PH+](c2ccccc2)c2ccccc2)cc1.c1ccc([PH+](c2ccccc2)c2ccccc2)cc1 | 34.7 µM | > 100 µM | 11.8 µM | 29.3 µM | 14.4 µM | 37.7 µM | 53.5 µM | > 100 µM | 16.8 µM | 36.2 µM | 23.7 µM | 54 µM | – | – | 1.6 µM and 4.03 µM | 5.53 µM and 16.6 µM | 20.2 µM | 38.9 µM | 3.46 µM and 12.4 µM | 51.5 µM |
| C=C(C)C12OC1[C@@]1(C)C(=CC2=O)CCC(O)[C@@H]1C (stereo not given in full) | – | – | – | > 100 µM | – | 11.4 µM | – | 3.89 µM | – | 36.7 µM | – | 11.7 µM | – | 9.26 µM | – | 13.4 µM | – | 14.2 µM | – | 5.91 µM |
| COc1c(CC(C)=O)ccc2c1C(=O)c1ccc(C=O)c(OC(C)=O)c1C2=O | – | > 100 µM | – | 29.5 µM | – | 63.2 µM | – | 37.9 µM | – | 27.8 µM | – | – | – | – | – | 21.4 µM | – | 24.9 µM | – | 8.39 µM |
| CCCCCCCCCCCCNC(=S)OC | – | 39.6 µM | – | 27.7 µM | – | 31.2 µM | – | 32.8 µM | – | 31 µM | – | 31.9 µM | – | – | – | 29.3 µM | – | 29.3 µM | – | 26 µM |
| [O-][Cl+3]([O-])([O-])[O-].[O]=[Ru]=[O].c1ccc(-c2ccccn2)nc1.c1ccc(-c2ccccn2)nc1 | > 100 µM | > 100 µM | > 100 µM | > 100 µM | 56.1 µM | > 100 µM | > 100 µM | > 100 µM | 82.5 µM | > 100 µM | > 100 µM | > 100 µM | – | – | > 100 µM | > 100 µM | – | – | > 100 µM | > 100 µM |
| CCOC(=O)C1=C(C)N(NC(=O)Nc2ccccc2)C2(N)N(NC(=O)Nc3ccccc3)C(C)=C(C(=O)OCC)C12C(=O)OCC (stereo not given) | – | > 100 µM | – | > 100 µM | – | > 100 µM | – | > 100 µM | – | > 100 µM | – | 84.7 µM | – | – | – | > 100 µM | – | 80.2 µM | – | > 100 µM |
| Cc1ccc(S(=O)(=O)N2CCC2c2ccccc2)cc1 (stereo not given) | – | > 100 µM | – | > 100 µM | – | > 100 µM | – | > 100 µM | – | > 100 µM | – | > 100 µM | – | – | – | > 100 µM | – | > 100 µM | – | > 100 µM |
| O=c1c2cccnc2ncn1CCN1CCCCC1 | – | > 100 µM | – | – | – | > 100 µM | – | > 100 µM | – | > 100 µM | – | > 100 µM | – | – | – | > 100 µM | – | > 100 µM | – | > 100 µM |
| O=S1C(=c2ccc(=C3Sc4ccccc4S3)cc2)Sc2ccccc21 (stereo not given) | – | > 100 µM | – | 28.9 µM | – | > 54.8 µM | – | 49.2 µM | – | 33.3 µM | – | 31.6 µM | – | – | – | 30.8 µM | – | > 56.6 µM | – | > 100 µM |
| CCCOc1nc(N)c2cnn(C3CCCCO3)c2n1 (stereo not given) | – | > 100 µM | – | > 100 µM | – | > 100 µM | – | > 100 µM | – | > 100 µM | – | > 100 µM | – | – | – | > 100 µM | – | > 100 µM | – | > 100 µM |
| CN(C)CC1CCC/C1=N/OC(=O)c1ccccc1 (stereo not given) | – | > 100 µM | – | > 100 µM | – | > 100 µM | – | > 100 µM | – | > 100 µM | – | > 100 µM | – | – | – | > 100 µM | – | > 100 µM | – | > 100 µM |
| CC#Cc1ccc(-c2ccccc2)s1 | – | – | – | > 100 µM | – | > 100 µM | – | > 100 µM | – | > 100 µM | – | – | – | > 100 µM | – | > 100 µM | – | > 100 µM | – | > 100 µM |
| O=c1[nH]c(-c2ccccc2)nc2cc(Cl)ccc12 | – | > 100 µM | – | > 100 µM | – | > 100 µM | – | > 100 µM | – | > 100 µM | – | > 100 µM | – | – | – | > 100 µM | – | > 100 µM | – | – |
| CN(C)C(=S)/N=c1\ssc(=S)n1C1CCCCC1 | – | 52.6 µM | – | > 100 µM | – | > 100 µM | – | > 100 µM | – | 73.2 µM | – | > 100 µM | – | – | – | 31.6 µM | – | 32.3 µM | – | 37.4 µM |
| O=C(/C=C/c1c(O)ccc2ccccc12)c1ccc([N+](=O)[O-])cc1 | – | > 100 µM | – | > 66.8 µM | – | > 100 µM | – | > 100 µM | – | 34.5 µM | – | > 100 µM | – | – | – | > 55.6 µM | – | 37.4 µM | – | 31.2 µM |
| COc1ccc(CN2C(=O)C(Cl)=C(Nc3cccc(C(F)(F)F)c3)C2=O)cc1 | 3.26 µM | 51.5 µM | 3.69 µM | 17.6 µM | 3.1 µM | 15.1 µM | 4.55 µM | 19.7 µM | 4.38 µM | 18.5 µM | 18.2 µM | > 100 µM | 3.14 µM | 13.1 µM | 8.02 µM | 30.1 µM | 3.45 µM | 15.4 µM | – | – |
| Cc1nnc2ccnn2c1C | > 100 µM | > 100 µM | > 100 µM | > 100 µM | > 100 µM | > 100 µM | – | – | 23.8 µM | > 100 µM | > 100 µM | > 100 µM | > 100 µM | > 100 µM | > 100 µM | > 100 µM | > 100 µM | > 100 µM | 66.3 µM | > 100 µM |
